The source made the active and inactive calls. The calls are words filed in the database; no cut-off is given here.
How the values were obtained:
Cannabinoid receptor 2 [1] = molecular target: T1, Cannabinoid receptor 2 (Homo sapiens, UniProt P34972); assay: Antagonist activity at human CB2 Receptor expressed in CHO cell membranes measured after 24 hrs by HTRF assay; format: functional, Cell membrane
Cannabinoid receptor 1 [2] = molecular target: T2, Cannabinoid receptor 1 (Homo sapiens, UniProt P21554); assay: Antagonist activity at human CB1 Receptor expressed in CHO cell membranes measured after 24 hrs by HTRF assay; format: functional, Cell membrane
Cannabinoid receptor 2 [3] = molecular target: T1, Cannabinoid receptor 2; assay: Antagonist activity at human CB2 Receptor expressed in CHO-K1 cells assessed as reduction in CP55940-induced ERK1/2 phosphorylation measured Western blot analysis; format: functional, cell-based; settings: filed as antagonist
Cannabinoid receptor 1 [4] = molecular target: T2, Cannabinoid receptor 1; assay: Antagonist activity at human CB1 Receptor expressed in CHO-K1 cells assessed as reduction in CP55940-induced ERK1/2 phosphorylation measured Western blot analysis; format: functional, cell-based

T2 sequence (P21554 whole entry): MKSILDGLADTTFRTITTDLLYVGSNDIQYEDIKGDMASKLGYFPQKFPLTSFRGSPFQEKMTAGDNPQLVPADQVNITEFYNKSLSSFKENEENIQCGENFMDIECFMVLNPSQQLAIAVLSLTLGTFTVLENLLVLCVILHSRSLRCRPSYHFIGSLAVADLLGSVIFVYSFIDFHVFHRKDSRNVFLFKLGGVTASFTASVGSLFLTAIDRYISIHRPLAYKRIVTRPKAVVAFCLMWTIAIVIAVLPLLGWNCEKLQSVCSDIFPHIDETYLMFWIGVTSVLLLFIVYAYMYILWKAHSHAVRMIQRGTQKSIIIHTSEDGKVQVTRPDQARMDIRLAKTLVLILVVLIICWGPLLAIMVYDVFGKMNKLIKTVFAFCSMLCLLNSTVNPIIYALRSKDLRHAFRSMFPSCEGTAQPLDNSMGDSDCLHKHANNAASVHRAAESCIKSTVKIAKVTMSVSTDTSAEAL
T1 sequence (P34972 whole entry): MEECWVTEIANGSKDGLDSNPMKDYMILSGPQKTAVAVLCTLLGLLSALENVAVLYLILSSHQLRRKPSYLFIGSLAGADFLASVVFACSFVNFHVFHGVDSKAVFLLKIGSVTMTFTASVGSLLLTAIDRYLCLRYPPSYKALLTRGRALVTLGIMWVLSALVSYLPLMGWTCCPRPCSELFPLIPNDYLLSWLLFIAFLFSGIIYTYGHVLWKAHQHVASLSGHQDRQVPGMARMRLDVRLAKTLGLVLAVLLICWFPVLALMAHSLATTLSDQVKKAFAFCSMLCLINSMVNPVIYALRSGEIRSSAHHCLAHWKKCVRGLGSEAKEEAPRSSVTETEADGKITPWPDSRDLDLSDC

Structure (SMILES)	IC50 (Cannabinoid receptor 2 [1])	IC50 (Cannabinoid receptor 1 [2])	Activity (Cannabinoid receptor 2 [3])	Activity (Cannabinoid receptor 1 [4])
Cc1c(C(=O)Nc2cccc(/N=N\c3ccccc3)c2)nn(CCCCCO)c1-c1ccccc1	0.41 µM	2.4 µM	–	–
Cc1c(C(=O)NCc2ccc(/N=N\c3ccccc3)cc2)nn(CCCCCO)c1-c1ccccc1	6.9 µM	4.1 µM	–	–
Cc1c(C(=O)Nc2cccc(/N=N/c3ccccc3)c2)nn(CCCCCO)c1-c1ccccc1	1.5 µM	6.2 µM	–	–
Cc1c(C(=O)Nc2ccc(/N=N\c3ccccc3)cc2)nn(CCCCCO)c1-c1ccccc1	9 µM	–	–	–
Cc1c(C(=O)NCCCc2cccc(/N=N\c3ccccc3)c2)nn(CCCCCO)c1-c1ccccc1	1.1 µM	3.8 µM	–	–
Cc1c(C(=O)NCCc2cccc(/N=N/c3ccccc3)c2)nn(CCCCCO)c1-c1ccccc1	6.5 µM	5.9 µM	–	–
Cc1c(C(=O)NCCCc2ccccc2/N=N\c2ccccc2)nn(CCCCCO)c1-c1ccccc1	1.3 µM	3.9 µM	–	–
Cc1c(C(=O)NCCCc2ccccc2/N=N/c2ccccc2)nn(CCCCCO)c1-c1ccccc1	3.4 µM	9 µM	–	–
Cc1c(C(=O)NCCc2ccc(/N=N\c3ccccc3)cc2)nn(CCCCCO)c1-c1ccccc1	5.2 µM	3.3 µM	–	–
Cc1c(C(=O)NCCCc2ccc(/N=N/c3ccccc3)cc2)nn(CCCCCO)c1-c1ccccc1	–	7.2 µM	–	–
Cc1c(C(=O)Nc2ccccc2/N=N/c2ccccc2)nn(CCCCCO)c1-c1ccccc1	5.5 µM	–	–	–
Cc1c(C(=O)NCc2cccc(/N=N/c3ccccc3)c2)nn(CCCCCO)c1-c1ccccc1	–	9.4 µM	–	–
Cc1c(C(=O)NCc2ccccc2/N=N\c2ccccc2)nn(CCCCCO)c1-c1ccccc1	0.07 µM	1.1 µM	Active	inactive
Cc1c(C(=O)NCCc2ccccc2/N=N\c2ccccc2)nn(CCCCCO)c1-c1ccccc1	0.36 µM	1.7 µM	–	–
Cc1c(C(=O)NCCc2ccc(/N=N/c3ccccc3)cc2)nn(CCCCCO)c1-c1ccccc1	–	7.9 µM	–	–
Cc1c(C(=O)NCc2ccc(/N=N/c3ccccc3)cc2)nn(CCCCCO)c1-c1ccccc1	–	8.3 µM	–	–
Cc1c(C(=O)NCc2ccccc2/N=N/c2ccccc2)nn(CCCCCO)c1-c1ccccc1	3.2 µM	1.6 µM	Active	inactive
Cc1c(C(=O)NCCCc2cccc(/N=N/c3ccccc3)c2)nn(CCCCCO)c1-c1ccccc1	3.7 µM	4.8 µM	–	–
Cc1c(C(=O)NCCc2cccc(/N=N\c3ccccc3)c2)nn(CCCCCO)c1-c1ccccc1	1.6 µM	3.3 µM	–	–
Cc1c(C(=O)NCCc2ccccc2/N=N/c2ccccc2)nn(CCCCCO)c1-c1ccccc1	2.1 µM	3.8 µM	–	–
Cc1c(C(=O)Nc2ccccc2/N=N\c2ccccc2)nn(CCCCCO)c1-c1ccccc1	0.62 µM	–	–	–
Cc1c(C(=O)NCc2cccc(/N=N\c3ccccc3)c2)nn(CCCCCO)c1-c1ccccc1	7 µM	5.8 µM	–	–
Cc1c(C(=O)NCCCc2ccc(/N=N\c3ccccc3)cc2)nn(CCCCCO)c1-c1ccccc1	3.5 µM	5.4 µM	–	–

Source: ChEMBL document CHEMBL5053505, “Rational Remodeling of Atypical Scaffolds for the Design of Photoswitchable Cannabinoid Receptor Tools” (J Med Chem, 2021)
